Among the test systems are MDA-MB-231 breast; M14 melanoma; SK-MEL-28 melanoma; SK-MEL-5 melanoma; OVCAR-3 ovarian; SNB-19 CNS; U251 CNS; OVCAR-8 ovarian; HCT-116 colon; SNB-75 CNS.
Holding throughout (assay): DTP human tumour cell line panel, 48 h

Each structure is given as a SMILES string.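 A five-concentration, 48-hour dose response in 96-well plates underlies each endpoint, interpolated linearly between surrounding concentrations. At the GI50, growth is halved. The concentration for full growth arrest is given as TGI.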

The term GI50 denotes the concentration at which growth is held to half of that of the control. What is called TGI is the concentration giving total growth inhibition. A lower TGI goes with more potent growth arrest. Consider `COc1ccc2[nH]c(Cl)c(/C=C3/C(=O)Nc4ccccc43)c2c1`, for which the GI50 was less than 0.0477 µM in the experiment on MDA-MB-231 breast; 0.254 µM in the experiment on M14 melanoma; 0.459 µM in the experiment with SK-MEL-28 melanoma; 0.0902 µM with SK-MEL-5 melanoma; 0.537 µM in the experiment with OVCAR-3 ovarian; 0.852 µM with SNB-19 CNS. Moreover, the GI50 is 0.861 µM in the experiment with U251 CNS, 0.498 µM with OVCAR-8 ovarian, 0.238 µM with HCT-116 colon and 0.252 µM in the experiment with SNB-75 CNS. Also, the TGI with MDA-MB-231 breast was found to be 2.95 µM; in the experiment with M14 melanoma, 1.23 µM; in the experiment on SK-MEL-28 melanoma, 5.47 µM; in the experiment on SK-MEL-5 melanoma, 0.722 µM; in the experiment on OVCAR-3 ovarian, 1.07 µM; in the experiment on U251 CNS, 2.75 µM. The TGI in the experiment on HCT-116 colon was determined as 1.17 µM; in the experiment on SNB-75 CNS, 0.659 µM.
With `CN(C)c1ccc(C(=S)c2ccc(N(C)C)cc2)cc1`, the GI50 was 8 µM with MDA-MB-231 breast; 3.33 µM with M14 melanoma; 7.59 µM in the experiment with SK-MEL-28 melanoma; 3.45 µM in the experiment on SK-MEL-5 melanoma; 3.93 µM with OVCAR-3 ovarian; 6.16 µM in the experiment on SNB-19 CNS. Besides, the GI50 with U251 CNS was 6.34 µM; in the experiment with OVCAR-8 ovarian it was 11.6 µM; with HCT-116 colon, 3.71 µM; in the experiment with SNB-75 CNS, 5.28 µM. Moreover, the TGI in the experiment on MDA-MB-231 breast is more than 100 µM; in the experiment on M14 melanoma it was more than 100 µM; with SK-MEL-28 melanoma it was more than 100 µM; in the experiment on SK-MEL-5 melanoma, 20.6 µM; with OVCAR-3 ovarian, more than 100 µM; in the experiment with SNB-19 CNS, more than 100 µM. For the same molecule, the total growth inhibition concentration (TGI) in the experiment on U251 CNS is more than 100 µM; in the experiment on OVCAR-8 ovarian, more than 100 µM; in the experiment with HCT-116 colon, more than 100 µM; in the experiment on SNB-75 CNS it was 40.2 µM.
As for `Cc1cccc2c(C3=C(c4cn(C)c5ccccc45)C(=O)NC3=O)cn(C)c12`, the GI50 in the experiment on MDA-MB-231 breast was more than 19.6 µM; with M14 melanoma, more than 25 µM; in the experiment on SK-MEL-28 melanoma, 17.5 µM; with SK-MEL-5 melanoma, more than 22.2 µM; in the experiment with OVCAR-3 ovarian, 9.33 µM; in the experiment with SNB-19 CNS, more than 25 µM. Further, the GI50 with U251 CNS is more than 25 µM; in the experiment on OVCAR-8 ovarian, 12.2 µM; in the experiment on HCT-116 colon, more than 15.8 µM; in the experiment with SNB-75 CNS it was 1.15 µM. The total growth inhibition concentration (TGI) in the experiment on MDA-MB-231 breast, with M14 melanoma, with SK-MEL-28 melanoma, in the experiment with SK-MEL-5 melanoma, in the experiment on OVCAR-3 ovarian and in the experiment with SNB-19 CNS was more than 25 µM in each case. The TGI in the experiment on U251 CNS, in the experiment on OVCAR-8 ovarian, in the experiment with HCT-116 colon and with SNB-75 CNS was more than 25 µM throughout.
`C[C@@H](C1CC[C@H]2[C@@H]3[C@@H]4O[C@@H]4[C@@]4(O)CC=CC(=O)[C@]4(C)[C@H]3C[C@H](O)[C@]12C)[C@H]1C[C@]2(C)O[C@]2(C)C(=O)O1` (stereo partly drawn): the TGI with MDA-MB-231 breast, with M14 melanoma, in the experiment on SK-MEL-28 melanoma, in the experiment on SK-MEL-5 melanoma, with OVCAR-3 ovarian and in the experiment with SNB-19 CNS was more than 100 µM in each case. Also, the TGI with U251 CNS, in the experiment on OVCAR-8 ovarian, with HCT-116 colon and in the experiment on SNB-75 CNS was more than 100 µM in each case.
For `O=C(Nc1ccc(OS(=O)(=O)c2ccc(F)cc2)cc1)C12CC3CC(CC(C3)C1)C2`, the GI50 in the experiment on MDA-MB-231 breast is 4.58 µM; in the experiment on M14 melanoma, 8.12 µM; in the experiment with SK-MEL-28 melanoma, 28.1 µM; with SK-MEL-5 melanoma it was 4.12 µM; in the experiment on OVCAR-3 ovarian, 8.64 µM; in the experiment with SNB-19 CNS, 15.9 µM. Also, the GI50 is 18 µM with U251 CNS, 18.1 µM in the experiment on OVCAR-8 ovarian, 0.929 µM in the experiment with HCT-116 colon and 4.51 µM in the experiment with SNB-75 CNS. Further, the TGI is 52.7 µM in the experiment with MDA-MB-231 breast; more than 100 µM with M14 melanoma; more than 100 µM in the experiment with SK-MEL-28 melanoma; more than 100 µM in the experiment on SK-MEL-5 melanoma; 46.3 µM with OVCAR-3 ovarian; 74.4 µM in the experiment with SNB-19 CNS. In addition, the total growth inhibition concentration (TGI) is more than 100 µM with U251 CNS, more than 100 µM in the experiment on OVCAR-8 ovarian, more than 100 µM in the experiment with HCT-116 colon and 26.8 µM in the experiment on SNB-75 CNS.
As for `C=CC(=O)N[C@@H]1CN(c2nc(Nc3cn(C)nc3OC)c3ncn(C)c3n2)C[C@H]1F`, the GI50 in the experiment on MDA-MB-231 breast is 23.8 µM; in the experiment on M14 melanoma, 18.7 µM; in the experiment on SK-MEL-28 melanoma, 50 µM; in the experiment with SK-MEL-5 melanoma it was 24.8 µM; in the experiment on OVCAR-3 ovarian, 19 µM; in the experiment on SNB-19 CNS it was 27.1 µM. The GI50 is 39.1 µM with U251 CNS, 33.6 µM in the experiment on OVCAR-8 ovarian, 27.3 µM with HCT-116 colon and 19.4 µM in the experiment on SNB-75 CNS. The TGI in the experiment with MDA-MB-231 breast is more than 88.2 µM; with M14 melanoma, 61.6 µM; in the experiment on SK-MEL-28 melanoma it was more than 100 µM; in the experiment on SK-MEL-5 melanoma, more than 59.8 µM; in the experiment with OVCAR-3 ovarian, more than 88 µM; in the experiment on SNB-19 CNS it was more than 100 µM. The TGI in the experiment on U251 CNS is more than 100 µM; in the experiment on OVCAR-8 ovarian, more than 100 µM; with HCT-116 colon, more than 100 µM; in the experiment with SNB-75 CNS, more than 78 µM.

(Values after PubChem BioAssay (NCI).)
